For data set [1] the following is noted: cited from earlier work; for cardiotoxicity in animals (in words): animal studies.
The test system of data set [2] is cell histotypes developing resistance against doxorubicin mediated by overexpression of glycoprotein P. The conditions noted are these: doxorubicin-resistant cells; cited from earlier work.
In data set [3] the test system is Lovo/DX. In words: MTT cytotoxicity assay, multidrug-resistant subline Lovo/DX. To be noted: for cross resistance / resistance in Lovo/DX (in words): Lovo/DX subline; for IC50: Homo sapiens, read-out: IC50 LOVO/DX; for RI (resistance index): ratio of the IC50 for the resistant line cell to the IC50 for the sensitive cell line. The format is cell-based, human. As for the experimental part:
(§1) The evaluation of the biological activity for the compounds of this invention was performed in vitro and in vivo following the protocols developed by the U.S. National Cancer Institute.
(§2) The evaluation of the in vitro cytotoxic activity of the compounds of the invention was performed using a human colon adenocarcinoma cell line (Lovo) isolated from a metastatic nodule, and a subline expressing multidrug resistance. The subline is resistant to a number of antitumor agents, among which are doxorubicin, VP-16, and vincristine.

For data set [4] the following is noted: in vivo; cited from earlier work.
Data set [5] has as its system human colon adenocarcinoma cell line (Lovo). Put plainly: MTT cytotoxicity assay, Lovo cell line. Format: cell-based. The conditions noted are these: read-out: IC50 LOVO. As for the experimental part:
as §1, §2
On the technique in general: Formazan colour is commonly taken as a measure of viable cells.

Data set [6] concerns Lovo/DX. The conditions noted are these: characterisation of subline (Grandi et al. 1986); cited from earlier work.
The conditions of data set [7]: rat; cited from earlier work.
The conditions of data set [8]: dose limiting, phase I and phase II; cited from earlier work.
The test system of data set [9] is advanced breast cancer, acute leukemia and lymphoma. The conditions noted are these: clinical trials; cited from earlier work.
For data set [10] the following is noted: i.p., non-tumor bearing rats, equieffective antitumor dosages; cited from earlier work.
The conditions of data set [11]: mostly in patients previously treated with doxorubicin; cited from earlier work.
[12] abbreviates: Lovo (sensitive) cells, MTT assay.
The mark [13] stands for this setting: Lovo/DX (resistant) cells, MTT assay.

Molecules are shown by their SMILES. In brackets after ≈: the same amount, converted by molar mass. Entries after “also recorded” stand apart in the source; their conditions may differ. Read-outs that look alike come from different tables or passages of the source.

As for `O=C1c2ccccc2C(=O)c2c(NCCNCCO)ccc(NCCNCCO)c21` [ametantrone, 1,4-bis{[2-(2-hydroxyethylamino)ethyl]amino}anthracene-9,10-dione], in [1], the “cardiotoxicity in animals (in words)” value is listed as “less cardiotoxic than mitoxantrone”. For the same compound, in data set [1] (in animals), the “potency relative to mitoxantrone (fold less potent)” value is reported as “about 10 fold”. Further, in [2], the “cross-resistance (in words)” value is “cross-resistance”. The “cross resistance / resistance in Lovo/DX (in words)” value in the data set on Lovo/DX [3] is given as “acquired resistance”. Besides, the “myelodepressive toxicity (in words)” value in data set [4] is “remarkable myelodepressive toxicity”.

Regarding `CN(C)CCNc1ccc2c3c(nn2CCN(C)C)-c2cnccc2C(=O)c13`, the values for the IC50 (in data set [5] (setting [12]); in the data set on Lovo/DX [3] (setting [13])) were 0.5 µg/mL (≈ 1.32 µM) and 0.9 µg/mL (≈ 2.38 µM), respectively. In addition, the “RI (resistance index)” value in the data set with Lovo/DX [3] amounted to 1.8.

As for `CN(C)CCn1nc2c3c(c(NCCN)ccc31)C(=O)c1ccncc1-2`, the IC50 came to 0.5 µg/mL (≈ 1.43 µM) in [5] (setting [12]) and 22.4 µg/mL (≈ 63.9 µM) in the data set on Lovo/DX [3] (setting [13]). Moreover, the “RI (resistance index)” value in the data set with Lovo/DX [3] was 44.8.

On to `CC[C@]1(O)C[C@H]2CN(CCc3c([nH]c4ccccc34)[C@@](C(=O)OC)(c3cc4c(cc3OC)N(C=O)[C@H]3[C@@](O)(C(=O)OC)[C@H](OC(C)=O)[C@]5(CC)C=CCN6CC[C@]43[C@@H]65)C2)C1` [vincristine], for which the “resistance / accumulation in Lovo/DX subline (in words)” value (shortened to “resistance / accumulation”) in the data set on Lovo/DX [6] is “resistant”.

Consider `COc1cc([C@@H]2c3cc4c(cc3[C@@H](O[C@@H]3O[C@@H]5CO[C@@H](C)O[C@H]5[C@H](O)[C@H]3O)[C@H]3COC(=O)[C@H]23)OCO4)cc(OC)c1O` [VP-16], for which, in the data set on Lovo/DX [6], the “resistance / accumulation” value is “resistant”.

Turning to `O=C1c2c(O)cccc2-c2nn(CCNCCO)c3ccc(NCCNCCO)c1c23` [CI-941], the “nephrotoxicity (in words)” value in [7] was “marked nephrotoxicity”. Besides, the “neutropenia, W.H.O. grade” value in data set [8] is 4 W.H.O. grade.

Turning to `O=C1c2c(O)ccc(O)c2C(=O)c2c(NCCNCCO)ccc(NCCNCCO)c21` [MITOXANTRONE, 5,8-dihydroxy-1,4-bis{[2-(2-hydroxyethylamino)ethyl]amino}anthracene-9,10-dione], in data set [1], the “cardiotoxicity in animals (in words)” value is “diminished cardiotoxicity in comparison to doxorubicin”. In [9], the “clinical antitumor activity (in words)” value was “particularly promising activity in the treatment of advanced breast cancer, acute leukemia and lymphoma”. The IC50 worked out at 0.04 µg/mL (≈ 0.09 µM) in [5] (LoVo) and 0.9 µg/mL (≈ 2.02 µM) in the data set on Lovo/DX [3] (LoVo/DX). Besides, the “cross resistance / resistance in Lovo/DX (in words)” value in the data set on Lovo/DX [3] is listed as “acquired resistance”. In addition, in [4], the “myelodepressive toxicity (in words)” value is given as “remarkable myelodepressive toxicity”. Moreover, in data set [10], the “delayed toxicity (in words)” value is recorded as “delayed toxicity is observed only with mitoxantrone”. For the same compound, in [11], the “clinical cardiotoxicity (in words)” value is “some clinical cardiotoxicity has been observed”.

Regarding `CN(C)CCNc1ccc2c3c(nn2CCN)-c2cnccc2C(=O)c13`, the IC50 in data set [5] (setting [12]) was 0.3 µg/mL (≈ 0.856 µM); with Lovo/DX [3] (setting [13]), 5 µg/mL (≈ 14.3 µM). In addition, the “RI (resistance index)” value in the data set with Lovo/DX [3] was found to be 16.7.

Turning to `COc1cccc2c1C(=O)c1c(O)c3c(c(O)c1C2=O)C[C@@](O)(C(=O)CO)C[C@@H]3O[C@H]1C[C@H](N)[C@H](O)[C@H](C)O1` [DOXORUBICIN], the “resistance / accumulation” value with Lovo/DX [6] was “resistant; also recorded: reduced accumulation”. Further, the IC50 in [5] (LoVo) stood at 0.9 µg/mL (≈ 1.66 µM); in the data set on Lovo/DX [3] (setting [13]) it was 66.6 µg/mL (≈ 123 µM). The “RI (resistance index)” value with Lovo/DX [3] is 74.

These data come from patent publication US5519029A, “2-aminoalkyl-5-aminoalkylamino substituted-isoquinoindazole-6(2H)-ones” (Boehringer Mannheim Italia, S.p.A., priority 1993, dated 1996).
